The values below come from PubChem BioAssay (NCI).

Several values for one entry are separate records, joined by “and”; a condition that tells them apart may be missing. Equal values may be shown once.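 Step 1: Grow cells in 96-well plates. Step 2: Expose to compound for 48 hours at 5 concentrations. Step 3: Interpolate endpoints linearly; if unreached, use highest concentration. The concentration for 50% growth inhibition is given as GI50. Definition used: TGI = concentration required for complete inhibition of growth.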

What all share (test): NCI anticancer screen, dose series, 48 h
Assay [1] has as its system A549 NSCLC.
Assay [2] concerns ACHN renal.
The subject of assay [3] is CCRF-CEM leukemia.
Assay [4] deals with HCT-116 colon.
The subject of assay [5] is HOP-92 NSCLC.
In assay [6] the test system is IGROV1 ovarian.
The test system of assay [7] is KM12 colon.
The subject of assay [8] is LOX IMVI melanoma.
Assay [9] has as its system OVCAR-5 ovarian.
In assay [10] the test system is SK-MEL-5 melanoma.

For the compound `COc1ccc2cc3[n+](cc2c1OC)CCc1cc2c(cc1-3)OCO2`, the TGI in assay [1] was more than 325 µM; in assay [2] it was more than 100 µM; in assay [4], > 100 µM and > 76.7 µM and 79.8 µM; in [6], > 100 µM and 137 µM; in assay [8], more than 201 µM; in assay [9], > 100 µM and 149 µM. Further, the GI50 in assay [3] is 9.29 µM; in assay [5], 8.54 µM; in assay [6], 18.4 µM; in [7], 2.79 µM and 4.27 µM; in [10] it was 1.26 µM.
For the compound `CCC[CH2][Sn]1([CH2]CCC)[O]C(=O)c2cccc(OC)c2[O]1`, the GI50 in assay [1] is 1.76 µM; in assay [2], 0.271 µM; in [3] it was 0.0261 µM; in [4] it was 0.494 µM; in assay [5], less than 0.0456 µM; in [6], 0.755 µM. Besides, the GI50 is 1.1 µM in assay [7], 0.161 µM in assay [8], 1.55 µM in assay [9] and 0.722 µM in assay [10]. In addition, the TGI in [1] stood at 3.37 µM; in assay [2], 0.753 µM; in [4], 1.69 µM; in [5] it was 0.486 µM; in [6], 2.15 µM; in [7] it was 2.32 µM. The TGI in assay [8] was determined as 0.442 µM; in assay [9], 2.9 µM; in assay [10] it was 2.11 µM.
In the case of `N#Cc1c(-c2ccc(Cl)cc2)c(-c2ccc(Cl)cc2)nn(CCOC(=O)CCC(=O)O)c1=O`, the TGI in assay [1] was more than 88.6 µM; in [2] it was more than 100 µM; in assay [3], more than 43.6 µM; in [4], 4.01 µM; in [5] it was 15.2 µM; in assay [6] it was more than 85.3 µM. Further, the TGI in assay [7] is 71.2 µM; in assay [8], more than 84.3 µM; in [9], more than 100 µM; in assay [10] it was 2.59 µM.
In the case of `CC(C)=CC(O)C/C(C)=C/CC/C(C)=C/CCC1(C)C(CCCO)/C(=C(/C)C=O)CCC1(C)O` (stereo not drawn), the TGI in assay [1] was more than 100 µM; in assay [2] it was 43.6 µM; in assay [3] it was more than 100 µM; in [4] it was more than 100 µM; in assay [5] it was more than 100 µM; in assay [6] it was 61.7 µM. The TGI was 52.9 µM in assay [7], more than 100 µM in assay [8], more than 100 µM in assay [9] and more than 100 µM in assay [10].
On to `Cc1ccc(-c2nc3c(C(=O)NCCN(C)C)cccc3[nH]2)cc1`, for which the TGI came out at 34.5 µM in assay [1]; 28.9 µM in assay [2]; 47.4 µM in assay [3]; 20.1 µM in [4]; 32.4 µM in assay [5]; 41.9 µM in assay [6]. In addition, the TGI was more than 100 µM in assay [7], 24.6 µM in [8], 45.2 µM in [9] and 26.6 µM in assay [10].
Consider `CO/N=C(\COc1ccc2c(c1)oc(=O)c1cc(OC)ccc12)c1ccc(F)cc1`, for which the GI50 is 26.3 µM in assay [1]; 16.8 µM in [2]; 47.5 µM in assay [3]; 14.9 µM in assay [4]; 14.4 µM in assay [5]; 19.3 µM in assay [6]. Further, the GI50 in assay [7] was 33.7 µM; in [8], 26 µM; in assay [9] it was 29.4 µM; in assay [10] it was 55.6 µM. The TGI in assay [1] was 94.8 µM; in [2] it was 32.1 µM; in assay [3], more than 100 µM; in assay [4], 41.2 µM; in assay [5] it was 37.4 µM; in assay [6], 42.8 µM. For the same compound, the TGI in [7] was more than 100 µM; in assay [8], 72.9 µM; in assay [9] it was 83.4 µM; in assay [10], more than 100 µM.
With `CCN(CC)CCCNc1nc2ccccc2c2c(=O)c3cc(Cl)ccc3sc12`, the GI50 in assay [1] is 2.02 µM; in assay [2], 1.63 µM; in [3], 2.81 µM; in assay [4] it was 1.73 µM; in [5] it was 1.57 µM; in [6] it was 1.36 µM. For the same compound, the GI50 in assay [7] is 1.79 µM; in assay [8], 1.65 µM; in assay [9] it was 2.25 µM; in [10], 3.11 µM. In addition, the TGI came out at 4.52 µM in [1]; 3.22 µM in assay [2]; 8.68 µM in assay [3]; 3.22 µM in [4]; 6.58 µM in assay [5]; 3.1 µM in [6]. The TGI in assay [7] is 3.24 µM; in assay [8], 3.08 µM; in assay [9], 6.29 µM; in assay [10], 11.3 µM.
Turning to `O=C1Cc2ccccc2N1c1c(Cl)cccc1Cl`, the TGI in assay [1], in assay [2], in assay [3], in assay [4], in [5] and in [6] was more than 100 µM throughout. The TGI in assay [7], in assay [8], in assay [9] and in assay [10] was more than 100 µM throughout.
For `CCCCCCCCCCCCCC(=O)OC(/C=C/C(C)C)C(O)C(O)C(OC)C(=O)NC1CCCCNC1=O` (stereo not drawn), the GI50 in [1] is 1.12 µM; in assay [2] it was 4.1 µM; in assay [3], 5.7 µM; in assay [4], 1.22 µM; in assay [6], 0.65 µM; in assay [7] it was 3.92 µM. Also, the GI50 in assay [8] is 1.73 µM; in [10] it was 6.53 µM. Further, the TGI amounted to 4.28 µM in assay [1]; 4.76 µM in [2]; 11.9 µM in assay [3]; 3.97 µM in assay [4]; 3.76 µM in assay [5]; 5.15 µM in assay [6]. Moreover, the TGI worked out at 4.59 µM in [7], 4.38 µM in [8], 9.63 µM in [9] and 5.25 µM in assay [10].
On to `CNc1cccnc1/C=N/NC(N)=S`, for which the TGI was 9.91 µM in [1]; 1.76 µM in [2]; more than 10 µM in assay [3]; more than 8.26 µM in assay [4]; more than 10 µM in [5]; more than 10 µM in assay [6]. The TGI is more than 10 µM in [7], more than 10 µM in assay [8], 9.78 µM in assay [9] and more than 10 µM in assay [10].
